Reference: patent US8691256B2, “Pest control compositions and methods” (Tyratech, Inc., priority 2008, dated 2014)
Like-named read-outs stand apart in the source and are kept apart here. Blank lines part the entries; values can stand above or below the molecule they belong to.

What was measured:
[1] = target: T1, tyramine receptor (TyrR) (Drosophila melanogaster, UniProt P22270); experiment: 3H-tyramine saturation and inhibition binding to membranes of Schneider cells expressing tyramine receptor; details: for efficiency at displacing ^3H-tyramine binding: compared with tyramine
T1 construct: oligonucleotides that are used to amplify the open reading frame of the Drosophila tyramine receptor (TyrR); expressed in transfected cells; whole cells or crude membrane fractions
T1 sequence (P22270 27-601): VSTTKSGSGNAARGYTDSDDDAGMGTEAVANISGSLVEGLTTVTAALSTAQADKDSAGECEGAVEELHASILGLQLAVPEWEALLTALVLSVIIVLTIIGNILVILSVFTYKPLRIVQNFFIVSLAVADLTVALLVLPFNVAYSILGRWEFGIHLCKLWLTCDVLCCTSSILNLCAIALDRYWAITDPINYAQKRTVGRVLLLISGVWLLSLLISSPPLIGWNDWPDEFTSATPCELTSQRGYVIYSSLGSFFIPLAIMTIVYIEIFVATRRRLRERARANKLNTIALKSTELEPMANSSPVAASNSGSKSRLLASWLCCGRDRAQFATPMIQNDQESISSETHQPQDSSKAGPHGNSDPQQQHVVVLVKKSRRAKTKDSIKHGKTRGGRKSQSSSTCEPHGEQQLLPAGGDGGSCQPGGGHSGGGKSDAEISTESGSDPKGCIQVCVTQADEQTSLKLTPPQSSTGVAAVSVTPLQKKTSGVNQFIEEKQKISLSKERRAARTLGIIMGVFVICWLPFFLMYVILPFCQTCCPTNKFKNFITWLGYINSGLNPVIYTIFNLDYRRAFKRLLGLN

[2] = system: Blattella germanica (German cockroaches); experiment: Pesticidal effect against German cockroaches (knock down and 100% kill time); type: in vivo
Method: With reference to Table 9, the pesticidal effect against Blattella germanica (German cockroaches) was determined for DM, Blend 12 (exemplified in Ingredient Family 9 of Table 6), and the composition including deltamethrin (DM) and Blend 12.
Similarly, with reference to Table 10, the pesticidal effect against German cockroaches was determined for deltamethrin (DM), Blend 7 (exemplified in Ingredient Family 5 of Table 6), and the composition including DM and Blend 7.

[3] = system: Drosphila melanogaster; experiment: Toxicity against Drosphila melanogaster by direct spray onto flies; type: in vivo, Drosophila melanogaster; details: 30 flies per composition, Fipronil 20 ppm, Blend 19 0.5 μg/fly, combination 0.5 μg Blend 19 + 20 ppm fipronil
Method: With reference to Table 14, the pesticidal effect against drosphila melanogaster was determined for Blend 19 and the composition including fipnoril and Blend 19. The composition of Blend 19 is also exemplified in Ingredient Family 15 of Table 6. Each composition was tested on 30 drosphila melanogaster by spraying directly onto the flies. Treatment with acetone as control at 0.5 μl/fly killed 2 flies, fipnoril alone at 20 ppm killed 12 flies, and Blend 19 alone at 0.5 μg/fly killed 10 flies. However, treatment with fipronil at 20 ppm combined with Blend 19 at 0.5 μg/fly killed all of the 30 flies.

[4] = target: T2, tyramine receptor (Drosophila melanogaster, UniProt P22270); experiment: Whole cell 3H-tyramine binding/uptake in transfected Schneider cells
T2 construct: oligonucleotides that are used to amplify the open reading frame of the Drosophila tyramine receptor (TyrR); expressed in transfected cells; whole cells or crude membrane fractions
T2 sequence (P22270 27-601): T1 sequence (P22270 27-601)
From the text: For transfection, Drosophila Schneider cells are stably transfected with pAc5(B)-TyrR ORF using the calcium phosphate-DNA coprecipitation protocol as described by Invitrogen Drosophila Expression System (DES) manual. The precipitation protocol is the same for either transient or stable transfection except for the use of an antibiotic resistant plasmid for stable transfection. At least about ten clones of stably transfected cells are selected and separately propagated. Stable clones expressing the receptors are selected by whole cell binding/uptake using ^3H-tyramine. […] Nonspecific binding is determined by including about 50 μM unlabeled-tyramine in the reaction. Binding is quantified counting radioactivity using a using a Liquid Scintillation β-counter (Beckman, Model LS1801). […]
Cells transfected with the tyramine receptor (about 1×10^6 cells/ml) are cultured in each well of a multi-well plate. […] Solubilized cells are transferred into about 4 ml Liquid Scintillation Solution (LSS) and vigorously vortexed for about 30 sec before counting the radioactivity using a Liquid Scintillation β-counter (Beckman, Model LS1801) (LSC).
Receptor specific binding data is expressed as fmol specific binding per 1×10^6 cells and measured as a function of ^3H-tyramine concentration. […]

[5] = target: Aedes aegypti; experiment: Pesticidal effect (KD) against Aedes aegypti; type: in vivo
Method: With reference to FIG. 4A, the pesticidal effect against Aedes aegypti was determined for Blend 19 (labeled “HL1”, exemplified in Ingredient Family 15 in Table 6) and the composition including clothianidin (CL) and Blend 19.
Similarly, with reference to FIG. 4B, the pesticidal effect against Aedes aegypti was determined for Blend 19 (labeled “HL1”) and the composition including CL and Blend 19.
Similarly, with reference to FIG. 4C, the pesticidal effect against Aedes aegypti was determined for Blend 19 (labeled “HL1”) and the composition including Imidacloprid and Blend 19.
With reference to FIG. 5, the pesticidal effect against Aedes aegypti was determined for Blend 11 (labeled “B5028”, exemplified in Ingredient Family 2 in Table 6) and the composition including Imidacloprid (labeled “I”) and B5028.

[6] = system: Periplaneta americana; experiment: Pesticidal effect (mortality) against Periplaneta americana; type: in vivo; details: 30 minutes post-treatment, Blend 19 5%
Method: With reference to FIG. 6A, the pesticidal effect against Periplaneta americana was determined for Blend 19 (labeled “HL1”, exemplified in Ingredient Family 15 in Table 6) and the composition including clothianidin (CL) and Blend 19.
With reference to FIG. 6B, the pesticidal effect against Periplaneta americana was determined for Blend 19 (labeled “HL1”) and the composition including Imidacloprid and Blend 19.

[7] = system: adult green peach aphids; experiment: Greenhouse spray test against adult green peach aphids; type: in vivo; details: imidacloprid in water at 100 ppm; three days after spraying
From the text: Adult green peach aphids were observed and counted on the plants in a greenhouse. Then different compositions were sprayed directly onto the plants with aphids. Three days after the composition was applied, aphids were counted again to evaluate the pesticidal effects of the composition.

[8] = system: Drosophila sp.; experiment: Pesticidal effect (KD) against Drosophila sp.; type: in vivo; details: 30 seconds post-treatment; Imidacloprid 50 ppm; Blend 19 2.5%; combination 50 ppm + 2.5% (FIG. 4D)
Method: Similarly, with reference to FIG. 4D, the pesticidal effect against Drosophila sp. was determined for Blend 19 (labeled “HL1”) and the composition including Imidacloprid and Blend 19.

[9] = system: thrips; experiment: Knockdown and mortality of thrips; type: in vivo
Method: Thrips were exposed to three different groups of compositions. Both knockdown (KD) and mortality were measured at indicated time intervals. Knockdown of target pests is measured in a plexilglass chamber at indicated intervals. Mortality of target pests is measured in cylindrical polyethylene containers with 10% sucrose pads. The mortality value is based on a combination of dead and moribund pests over the total number of pests initially released.
Thrips were exposed to three different groups of compositions. […] The composition of Blend 8 is exemplified in Ingredient Family 21 in Table 6.
Thrips were exposed to three different groups of compositions. […] Blend 38 (label “B5049” and “TT 1A”) is exemplified in Ingredient Family 12 in Table 6.

[10] = saturation binding to membranes of Schneider cells expressing tyramine receptor
[11] = Thrips, 24 h, read-out: mortality of the thrips
[12] = imidacloprid alone at 1 ppm, till the end of the experiment at 24 hours post treatment
[13] = imidacloprid alone at 10 ppm, till the end of the experiment at 24 hours post treatment

rank order of potency (Ki and EC50) [1]: tyramine>octopamine>dopamine>serotonin
efficiency at displacing ^3H-tyramine binding [1]: less efficient than tyramine
Compound: NCCc1ccc(O)c(O)c1 [dopamine, Dopamine]

rank order of potency (Ki and EC50) [1]: tyramine>octopamine>dopamine>serotonin
efficiency at displacing ^3H-tyramine binding [1]: less efficient than tyramine
Compound: NCC(O)c1ccc(O)cc1 (centres unmarked) [Octopamine]

Compound: CC1(C)[C@H](C(=O)O[C@H](C#N)c2cccc(Oc3ccccc3)c2)[C@@H]1C=C(Br)Br [DM, deltamethrin]
100% Kill ([2]; Table 9: DM 0.037 mg/cm^2, Blend 12 1.9 mg/cm^2): 15 min
100% Kill ([2]; Table 10: DM 0.037 mg/cm^2): 12 min

Compound: N#Cc1nn(-c2c(Cl)cc(C(F)(F)F)cc2Cl)c(N)c1[S+]([O-])C(F)(F)F (centres unmarked) [Fipronil]
# of Flies Killed [3]: 12/30
# of Flies Killed ([3]; listed as fipnoril): 12

Compound: NCCc1ccc(O)cc1 [Tyramine (TA), Tyramine]
response of untransfected cells ([4]; concentrations as high as about 100 μM): do not respond
rank order of potency (Ki and EC50) [1]: tyramine>octopamine>dopamine>serotonin

Compound: CN/C(=N\[N+](=O)[O-])NCc1cnc(Cl)s1 [CL, clothianidin]
KD of the target insect ([5]; CL alone at 250 ppm (FIG. 4B)): no KD
KD of the target insect ([5]; CL alone at 500 ppm (FIG. 4A)): no KD
mortality of the target insect ([6]; CL 0.05%, combination 0.05% + 5% (FIG. 6A)): no mortality

Compound: NCCc1ccc(O)cc1 [^3H-tyramine]
^3H-tyramine concentration at which maximum specific binding occurs ([4]; whole transfected cells): about 5 nM
Bmax [1, 10]: about 0.679 pmol/mg protein
Kd [1, 10]: ~1.26 nM

Compound: O=[N+]([O-])NC1=NCCN1Cc1ccc(Cl)nc1 [Imidacloprid]
change in aphid numbers [7]: No changes in aphid numbers
KD of the target insect [8]: 0%
KD of the target insect ([5]; 30 seconds post-treatment, Imidacloprid 250 ppm, Blend 19 2.5%, combination 250 ppm + 2.5% (FIG. 4C)): 20%
KD of the target insect ([5]; Imidacloprid 500 ppm, B5028 5%, combination 500 ppm + 5% (FIG. 5)): no KD
mortality of the target insect ([6]; Imidacloprid alone at 0.05%, 0.033% and 0.01%, combination Imidacloprid 0.033% + 5% Blend 19 (FIG. 6B)): no mortality
mortality at 100 ppm ([9]; Thrips, 2 h, read-out: mortality of the thrips): 10%
mortality at 100 ppm ([9]; Thrips, 4 h, read-out: mortality of the thrips): 20%
mortality at 50 ppm [9, 11]: 50%
mortality at 100 ppm [9, 11]: 40%
KD of the thrips [9, 12]: no KD
mortality of the thrips [9, 12]: no mortality
KD of the thrips [9, 13]: no KD
mortality of the thrips [9, 13]: no mortality
KD of the thrips ([9]; imidacloprid alone at 20 ppm, 24 hours post treatment): 12%
mortality of the thrips ([9]; imidacloprid alone at 20 ppm, till the end of the experiment at 24 hours post treatment): no mortality
KD of the thrips ([9]; imidacloprid alone at 50 ppm, 24 hours post treatment): 100%
KD of the thrips ([9]; imidacloprid alone at 100 ppm, 2 hours post treatment): 10%
KD of the thrips ([9]; imidacloprid alone at 100 ppm, 4 hours post treatment): 20%
KD of the thrips ([9]; imidacloprid alone at 100 ppm, 24 hours post treatment): 80%
